Several values for one entry are separate records, joined by “and”; a condition that tells them apart may be missing. Equal values may be shown once. Square brackets hold non-standard residues; d marks the D form. Ends that are not written are not given here. Peptide text beside a SMILES is read from it.
Legend:
Assay in all cases: microbe, parasite or virus in culture
MDR S. aureus = conditions: for Minimum inhibitory concentrations, MDR S. aureus: CLSI broth microdilution, CAMHB with 50 mg/L Ca2+, 10 mg/L Mg2+, 5 × 10^5 CFU/ml, 18 h 37 °C, triplicate, strain KCCM 40510; for MIC in 0.2% albumin and 0.01% AcOH added CLSI standard condition, MDR S. aureus: CAMHB plus 0.2% bovine serum albumin and 0.01% acetic acid, values marked * in Table 2
How it was run: (§1)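 CLSI broth microdilution, CAMHB + Ca 50 mg/L, Mg 10 mg/L. Mid-log inoculum 5 × 10^5 CFU/ml final, 18 h, 37 °C. MIC = lowest peptide conc. with no visible turbidity by eye; triplicate.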

MDR A. baumannii = conditions: for Minimum inhibitory concentrations, MDR A. baumannii: CLSI broth microdilution, CAMHB with 50 mg/L Ca2+, 10 mg/L Mg2+, 5 × 10^5 CFU/ml, 18 h 37 °C, triplicate, strain ATCC BAA-1605; for MIC in 0.2% albumin and 0.01% AcOH added CLSI standard condition, MDR A. baumannii: CAMHB plus 0.2% bovine serum albumin and 0.01% acetic acid, values marked * in Table 2
How it was run: as §1

MDR P. aeruginosa = conditions: for Minimum inhibitory concentrations, MDR P. aeruginosa: CLSI broth microdilution, CAMHB with 50 mg/L Ca2+, 10 mg/L Mg2+, 5 × 10^5 CFU/ml, 18 h 37 °C, no visible turbidity, triplicate, strain CCARM 2180; for MIC in 0.2% albumin and 0.01% AcOH added CLSI standard condition, MDR P. aeruginosa: CAMHB plus 0.2% bovine serum albumin and 0.01% acetic acid, values marked * in Table 2
How it was run: as §1

A. baumannii strains = conditions: for Number of A. baumannii strains at MIC (μM) 0.63 / Number of A. baumannii strains at MIC (μM) 1.25 / Number of A. baumannii strains at MIC (μM) 2.5 / Number of A. baumannii strains at MIC (μM) 5 / Number of A. baumannii strains at MIC (μM) 10 / Number of A. baumannii strains at MIC (μM) ≤0.31 / Number of A. baumannii strains at MIC (μM) ≥20: of 30 strains
Experimental: Twenty-six A. baumannii strains were clinically isolated and gifted to us by the Kyungpook National University School of Medicine. One A. baumannii strain (ATCC 17978) was purchased and gifted to us by Kyungpook National University School of Medicine. One A. baumannii strain and 10 K. pneumoniae strains (NCCP) were purchased from the National Culture Collection for Pathogens.
To assess antimicrobial activity, the MIC50 and MIC90 were measured using broth microdilution following CLSI guidelines. […] Each experiment was performed in triplicate. Meropenem (Sigma, Darmstadt, Germany) and colistin were used as control antibiotics. Cation-adjusted Mueller–Hinton broth (CAMHB) (Becton, Dickinson and Company, Franklin Lakes, USA) with supplied calcium (50 mg/L) and magnesium (10 mg/L) was used for the CLSI-test condition. Bacteria in midlog phase and peptides were separately diluted in CAMHB. The bacteria and peptide solutions were then mixed in 96-well polyethylene plates (SPL, Gyeonggi-do, Korea) and incubated for 18 h at 37 °C. The final concentration for bacteria was 5 × 10^5 CFU/ml. […] The MIC was defined to be the lowest concentration of peptide without visible turbidity by comparing with control antibiotics with the unaided eye. […] Each experiment was performed in triplicate. MICs in albumin and acetic acid solutions were measured using the same protocol but with 0.2% bovine serum albumin (Bovogen, Keilor, Australia), 0.01% acetic acid (Merck, New Jersey, USA), and CAMHB with both calcium and magnesium. In addition, MICs used in the antibiotic resistance acquisition test, the outer–inner membrane permeation test, and the transmembrane potential test and for FE-SEM were individually determined. The final bacterial concentrations used were as follows: for resistance acquisition, optical density (OD) 0.01; for outer–inner membrane permeability assays (LB), OD 0.1; for the transmembrane potential test, 1 × 10^8 CFU/ml (OD 0.171); […]. Inhibitory activity unidentifiable by direct observation was determined by counting the CFUs. Each experiment was performed at least twice.

MDR E. faecalis = conditions: for MIC in 0.2% albumin and 0.01% AcOH added CLSI standard condition, MDR E. faecalis: CAMHB plus 0.2% bovine serum albumin and 0.01% acetic acid, values marked * in Table 2
How it was run: as §1

CC[C@@H](C)[C@@H](NC(=O)[C@@H](Cc1c[nH]c2ccccc12)NC(=O)[C@@H](CCCNC(=N)N)NC(=O)[C@@H](CCCNC(=N)N)NC(=O)[C@H](N)CCCNC(=N)N)C(=O)N[C@H](Cc1c[nH]c2ccccc12)C(=O)N[C@@H](C(=O)N[C@@H](C(=O)N[C@H](Cc1c[nH]c2ccccc12)C(=O)N[C@H](CCCCN)C(N)=O)[C@H](C)CC)C(C)C [WCopW43] (H-[dR][dR][dR][dW][dI][dW][dV][dI][dW][dK]-NH2)
1: Number of A. baumannii strains at MIC (μM) ≤0.31 (A. baumannii strains)
0.63 µM: Minimum inhibitory concentrations, MDR S. aureus (MDR S. aureus) | Minimum inhibitory concentrations, MDR A. baumannii (MDR A. baumannii) | MIC50 (A. baumannii strains; strains, 18 h) | MIC, A. baumannii Isolated strain 6 (A. baumannii strains; strains, 18 h) | MIC, A. baumannii Isolated strain 10 (A. baumannii strains; strains, 18 h) | MIC, A. baumannii Isolated strain 15 (A. baumannii strains; strains, 18 h) | MIC, A. baumannii Isolated strain 19 (A. baumannii strains; strains, 18 h) | MIC, A. baumannii Isolated strain 22 (A. baumannii strains; strains, 18 h) | MIC, A. baumannii Isolated strain 39 (A. baumannii strains; strains, 18 h) | MIC, A. baumannii Isolated strain 69 (A. baumannii strains; strains, 18 h) | MIC, A. baumannii Isolated strain 71 (A. baumannii strains; strains, 18 h) | MIC, A. baumannii Isolated strain 80 (A. baumannii strains; strains, 18 h) | MIC, A. baumannii Isolated strain 82 (A. baumannii strains; strains, 18 h) | MIC, A. baumannii Isolated strain 86 (A. baumannii strains; strains, 18 h) | MIC, A. baumannii Isolated strain 102 (A. baumannii strains; strains, 18 h) | MIC, A. baumannii Isolated strain 141 (A. baumannii strains; strains, 18 h) | MIC, A. baumannii Isolated strain 152 (A. baumannii strains; strains, 18 h) | MIC, A. baumannii KCCM 40203 (A. baumannii strains; strains, 18 h)
0: Number of A. baumannii strains at MIC (μM) 2.5 (A. baumannii strains) | Number of A. baumannii strains at MIC (μM) 5 (A. baumannii strains) | Number of A. baumannii strains at MIC (μM) 10 (A. baumannii strains) | Number of A. baumannii strains at MIC (μM) ≥20 (A. baumannii strains)
< 0.31 µM: MIC, A. baumannii Isolated strain 76 (A. baumannii strains; strains, 18 h)
15: Number of A. baumannii strains at MIC (μM) 0.63 (A. baumannii strains)
14: Number of A. baumannii strains at MIC (μM) 1.25 (A. baumannii strains)
1.25 µM: Minimum inhibitory concentrations, MDR P. aeruginosa (MDR P. aeruginosa) | MIC, A. baumannii ATCC 17978 (A. baumannii strains; strains, 18 h) | MIC, A. baumannii Isolated strain 1 (A. baumannii strains; strains, 18 h) | MIC, A. baumannii Isolated strain 3 (A. baumannii strains; strains, 18 h) | MIC, A. baumannii Isolated strain 14 (A. baumannii strains; strains, 18 h) | MIC, A. baumannii Isolated strain 16 (A. baumannii strains; strains, 18 h) | MIC, A. baumannii Isolated strain 44 (A. baumannii strains; strains, 18 h) | MIC, A. baumannii Isolated strain 66 (A. baumannii strains; strains, 18 h) | MIC, A. baumannii Isolated strain 68 (A. baumannii strains; strains, 18 h) | MIC, A. baumannii Isolated strain 89 (A. baumannii strains; strains, 18 h) | MIC, A. baumannii Isolated strain 127 (A. baumannii strains; strains, 18 h) | MIC, A. baumannii Isolated strain 144 (A. baumannii strains; strains, 18 h) | MIC, A. baumannii Isolated strain 147 (A. baumannii strains; strains, 18 h) | MIC, A. baumannii NCCP 14654 (A. baumannii strains; strains, 18 h)

Colistin
1: Number of A. baumannii strains at MIC (μM) 5 (A. baumannii strains) | Number of A. baumannii strains at MIC (μM) ≥20 (A. baumannii strains)
3: Number of A. baumannii strains at MIC (μM) 2.5 (A. baumannii strains)
1.25 µM and 0.63 µM: Minimum inhibitory concentrations, MDR P. aeruginosa (MDR P. aeruginosa)
0.63 µM: MIC50 (A. baumannii strains; 30 A. baumannii strains, including 27 carbapenem-resistant, CLSI broth microdilution) | MIC, A. baumannii ATCC 17978 (A. baumannii strains; CLSI) | MIC, A. baumannii ATCC BBA 1605 (A. baumannii strains; CLSI) | MIC, A. baumannii Isolated strain 1 (A. baumannii strains; CLSI) | MIC, A. baumannii Isolated strain 15 (A. baumannii strains; CLSI) | MIC, A. baumannii Isolated strain 68 (A. baumannii strains; CLSI) | MIC, A. baumannii Isolated strain 80 (A. baumannii strains; CLSI) | MIC, A. baumannii Isolated strain 82 (A. baumannii strains; CLSI) | MIC, A. baumannii Isolated strain 86 (A. baumannii strains; CLSI) | MIC, A. baumannii Isolated strain 102 (A. baumannii strains; CLSI) | MIC, A. baumannii Isolated strain 127 (A. baumannii strains; CLSI) | MIC, A. baumannii Isolated strain 144 (A. baumannii strains; CLSI) | MIC, A. baumannii KCCM 40203 (A. baumannii strains; CLSI)
< 0.31 µM: MIC, A. baumannii Isolated strain 16 (A. baumannii strains; CLSI) | MIC, A. baumannii Isolated strain 19 (A. baumannii strains; CLSI) | MIC, A. baumannii Isolated strain 39 (A. baumannii strains; CLSI) | MIC, A. baumannii Isolated strain 76 (A. baumannii strains; CLSI) | MIC, A. baumannii Isolated strain 141 (A. baumannii strains; CLSI)
2.5 µM: MIC, A. baumannii Isolated strain 6 (A. baumannii strains; CLSI) | MIC, A. baumannii Isolated strain 10 (A. baumannii strains; CLSI) | MIC, A. baumannii Isolated strain 89 (A. baumannii strains; CLSI)
5: Number of A. baumannii strains at MIC (μM) ≤0.31 (A. baumannii strains)
0: Number of A. baumannii strains at MIC (μM) 10 (A. baumannii strains)
12: Number of A. baumannii strains at MIC (μM) 0.63 (A. baumannii strains)
> 20 µM: MIC, A. baumannii Isolated strain 3 (A. baumannii strains; CLSI)
8: Number of A. baumannii strains at MIC (μM) 1.25 (A. baumannii strains)
≤ 0.15 µM: MIC in 0.2% albumin and 0.01% AcOH added CLSI standard condition, MDR A. baumannii (MDR A. baumannii) | MIC in 0.2% albumin and 0.01% AcOH added CLSI standard condition, MDR P. aeruginosa (MDR P. aeruginosa)
1.25 µM: MIC, A. baumannii Isolated strain 14 (A. baumannii strains; CLSI) | MIC, A. baumannii Isolated strain 22 (A. baumannii strains; CLSI) | MIC, A. baumannii Isolated strain 44 (A. baumannii strains; CLSI) | MIC, A. baumannii Isolated strain 66 (A. baumannii strains; CLSI) | MIC, A. baumannii Isolated strain 69 (A. baumannii strains; CLSI) | MIC, A. baumannii Isolated strain 71 (A. baumannii strains; CLSI) | MIC, A. baumannii Isolated strain 152 (A. baumannii strains; CLSI) | MIC, A. baumannii NCCP 14654 (A. baumannii strains; CLSI)
5 µM: MIC, A. baumannii Isolated strain 147 (A. baumannii strains; CLSI)

RLWWRWIVR-NH2 [HLWCopW29-4]
> 20 µM: MIC at TM potential condition, S. aureus KCCM 40510 (MDR S. aureus; bacteria OD 0.1 (5 x 10^7 cfu/ml), CAMHB, 1% DMSO) | MIC in 0.2% albumin and 0.01% AcOH added CLSI standard condition, MDR P. aeruginosa (MDR P. aeruginosa) | Minimum inhibitory concentrations, MDR P. aeruginosa (MDR P. aeruginosa)
20 µM: MIC in 0.2% albumin and 0.01% AcOH added CLSI standard condition, MDR E. faecalis (MDR E. faecalis) | MIC in 0.2% albumin and 0.01% AcOH added CLSI standard condition, MDR S. aureus (MDR S. aureus) | MIC in 0.2% albumin and 0.01% AcOH added CLSI standard condition, MDR A. baumannii (MDR A. baumannii)

WLVWIWRRR-NH2 [LWCopW29]
1.25 µM: MIC in 0.2% albumin and 0.01% AcOH added CLSI standard condition, MDR E. faecalis (MDR E. faecalis) | MIC in 0.2% albumin and 0.01% AcOH added CLSI standard condition, MDR S. aureus (MDR S. aureus) | Minimum inhibitory concentrations, MDR A. baumannii (MDR A. baumannii)
0.31 µM: MIC in 0.2% albumin and 0.01% AcOH added CLSI standard condition, MDR A. baumannii (MDR A. baumannii)
twofold: Increase of MIC when the S. aureus concentration was increased 200-fold (MDR S. aureus; S. aureus)
> 20 µM: Minimum inhibitory concentrations, MDR P. aeruginosa (MDR P. aeruginosa)
20 µM: MIC in 0.2% albumin and 0.01% AcOH added CLSI standard condition, MDR P. aeruginosa (MDR P. aeruginosa)
5 µM: Minimum inhibitory concentrations, MDR E. faecalis (MDR E. faecalis; CLSI broth microdilution, CAMHB with 50 mg/L Ca2+, 10 mg/L Mg2+, 5 × 10^5 CFU/ml, 18 h 37 °C, triplicate, strain ATCC 51575) | Minimum inhibitory concentrations, MDR S. aureus (MDR S. aureus)

Reference: article PMC9643456, “Matching amino acids membrane preference profile to improve activity of antimicrobial peptides” (Communications Biology, 2022)
